Data from US11473088B2, “Method of treating cancer and method of sensitizing cancer cells to the action of chemotherapeutic agents via growth hormone receptor antagonists or knock down” (Ohio University, priority 2016, dated 2022).

Key:
SK-MEL-5 cells = assay: Cell proliferation (resazurin) assay; format: cell-based, human; settings: 48 hr
SK-HEP-1 cells = assay: RT-qPCR after GH / GHR-antagonist treatment; format: cell-based, human; settings: 50 ng/mL GH, 3 days
Description: Following treatments, cells were lysed, and RNA extraction was performed using IBI Tri-isolate kit (IBI), following manufacturer's protocol. RT-qPCR was performed as described previously.
The inventors had previously shown that knock-down of GHR in turn strongly attenuates MET as well as HGF transcript levels in human melanoma. To verify this observation in another GHR expressing human cancer like HCC, the inventors analyzed the effects of GH and GHR-antagonist treatment on the expression of the oncogenic HGF-MET loop in human liver cancer cells. HepG2 and SK-HEP-1 cells were treated for 3 days with either 50 ng/mL GH (2.5 nM), or 50 nM GHR-antagonist, or both, and their RNA expressions were compared against untreated controls at basal levels (i.e. no drug treatment). No additional effect of added GH on the expression levels of HGF or MET in the liver cancer cell lines was observed, except a 2-fold increase in MET levels in SK-HEP-1 cells (FIG. 39). […] Irrespective of presence of added GH, the antagonist lowered HGF levels by >4-fold in Hep-G2 cells and up to 2-fold in SK-HEP-1 cells; while the MET levels were decreased by >2-fold in both Hep-G2 and SK-HEP-1 cells compared to the GH treated samples (FIG. 39). […]

human melanoma cells = assay: RT-qPCR of RNA levels after hGH addition or GHR-KD; format: cell-based
Description: For hGH treatment, 16 hours after seeding (or 24 hours post-transfection), the cells were serum-starved for 2 hours in serum-free growth media, and hGH (phosphate buffered saline was used as control where applicable) was added at the noted concentrations (0-, 5-, 50-, and 150 ng/ml). Cells were subsequently incubated for 24 hours before evaluating RNA levels. Recombinant hGH was purchased from Antibodies Online (#ABIN2017921, Atlanta, Ga.).
Transfection was performed using siLentFect lipid reagent (Biorad #170-3360, Hercules, Calif.) following the manufacturer's protocol. […] Mock transfections were performed using universal scrambled negative control siRNA-duplex (Origene #SR30004). TYE-563-fluorescent labeled siRNA duplex (Origene #SR30002) was used as the transfection control. Cells were trypsinized, counted using a Countess Automated Cell Counter (Life Technologies, Carlsbad, Calif.), and seeded at 25,000-30,000 cells/cm^2, the cells being allowed to attach for 16-18 hours. The growth media was replaced with fresh antibiotic free complete growth medium just prior to transfection. […] Media was changed to complete growth medium plus antibiotics after 24 hours. RNA levels were analyzed 48 hours post-transfection, and protein levels were analyzed at 60 hours post-transfection.
RNA extraction was performed using the IBI-Trizol based total RNA purification kit (MidSci #IB47632, St. Louis, Mo.), and reverse transcription was performed using Maxima First Strand cDNA synthesis kit (Thermo Fisher Scientific #K1642, Waltham, Mass.) following the manufacturers' protocols. Real time-quantitative PCR and melt curve analysis were performed using Maxima SYBR-Green qPCR master mix (Thermo Fisher Scientific #K0241) and a T100 thermal cycler (Biorad #1861096, Hercules, Calif.). RNA and DNA concentrations were estimated using a Nanodrop2000 (Thermo Fisher Scientific, Waltham, Mass.) spectrophotometer. Primers were obtained from Sigma-Aldrich for the following human genes, with primer efficiency being experimentally confirmed: GAPDH, b-Actin, GHR, GHRHR, SOCS2, IGF1, IGF1R, IGF2, IGF2R, PRL, PRLR, insulin (Ins), IR, IGFBP2, IGFBP3, EGFR, HGF, cMET and ERBB3. Each sample represented a pool of two replicates per experiment. Experiments were performed at least three times. Each qPCR for individual genes and every treatment for every cell type was performed in triplicates.
And so—referring now to FIGS. 12A-12B, 17A-17C, 18A-18F, 19A-19F, and 20A-20F—RT-qPCR analysis of GH-IGF axis in human melanoma cells (FIGS. 12A-12B) and RT-qPCR analysis of GH-GHR and PRL-PRLR pairs in human melanoma cells (FIGS. 17A-17C) was performed. […] The percentage free area at the end time point was calculated using ImageJ software and reflected the decrease/inhibition in migration. […]

[1] = SK-MEL-28 and MALME-3M, maximum GH concentrations

With “hGH: Recombinant human growth hormone, Antibodies Online #ABIN2017921” the “Cell proliferation induced by hGH-excess (increase)” value (SK-MEL-5 cells; 50 ng/ml hGH) was 10%, the increase in proliferation (SK-MEL-5 cells; 150 ng/mL hGH) was 22% and the “increase in MET levels” value (SK-HEP-1 cells) was 2 fold. The “level of decrease of some ABC-transporters in presence of GH” value (human melanoma cells; 50 ng/mL GH, with anti-cancer drugs) was ~2 fold, the “ERBB3 RNA levels” value (human melanoma cells; GH stimulation or GHR-KD) was “upregulation” and the “HGF expression level upregulated with added GH” value (human melanoma cells; [1]) was “more than 2 fold”. The “MET expression level upregulated with added GH” value (human melanoma cells; [1]) was “more than 2 fold”.
